Laboratory results reported in PMC9848257, “Design and synthesis of novel rigid dibenzo[b,f]azepines through ring closure technique as promising anticancer candidates against leukaemia and acting as selective topoisomerase II inhibitors and DNA intercalators” (Journal of Enzyme Inhibition and Medicinal Chemistry, 2023).

Tests used:
CCRF-CEM = test: NCI-60 one-dose screen, CCRF-CEM; assay type: cell-based; conditions: Homo sapiens, leukaemia, single dose 10 μM, read-out: Growth inhibition %
K-562 = test: NCI-60 one-dose screen, K-562; assay type: cell-based; conditions: Homo sapiens, K562; K-562, leukaemia; single dose 10 μM; read-out: Growth inhibition %
MOLT-4 = test: NCI-60 one-dose screen, MOLT-4; assay type: cell-based; conditions: Homo sapiens; MOLT-4, leukaemia; single dose 10 μM; read-out: Growth inhibition %
RPMI-8226 = test: NCI-60 one-dose screen, RPMI-8226; assay type: cell-based; conditions: Homo sapiens; RPMI-8226, leukaemia; single dose 10 μM; read-out: Growth inhibition %
SR = test: NCI-60 one-dose screen, SR; assay type: cell-based; conditions: Homo sapiens, leukaemia, single dose 10 μM, read-out: Growth inhibition %
EKVX = test: NCI-60 one-dose screen, EKVX; assay type: cell-based; conditions: Homo sapiens, non-small cell lung cancer, single dose 10 μM, read-out: Growth inhibition %
HOP-62 = test: NCI-60 one-dose screen, HOP-62; assay type: cell-based; conditions: Homo sapiens; HOP-62, non-small cell lung cancer; single dose 10 μM; read-out: Growth inhibition %
HOP-92 = test: NCI-60 one-dose screen, HOP-92; assay type: cell-based; conditions: Homo sapiens; HOP-92, non-small cell lung cancer; single dose 10 μM; read-out: Growth inhibition %
NCI-H322M = test: NCI-60 one-dose screen, NCI-H322M; assay type: cell-based; conditions: Homo sapiens, non-small cell lung cancer, single dose 10 μM, read-out: Growth inhibition %
NCI-H522 = test: NCI-60 one-dose screen, NCI-H522; assay type: cell-based; conditions: Homo sapiens; NCI-H522, non-small cell lung cancer; single dose 10 μM; read-out: Growth inhibition %
HCT-15 = test: NCI-60 one-dose screen, HCT-15; assay type: cell-based; conditions: Homo sapiens; HCT-15, colon cancer; single dose 10 μM; read-out: Growth inhibition %
HT29 = test: NCI-60 one-dose screen, HT29; assay type: cell-based; conditions: Homo sapiens, HT-29; HT29, colon cancer; single dose 10 μM; read-out: Growth inhibition %
KM12 = test: NCI-60 one-dose screen, KM12; assay type: cell-based; conditions: Homo sapiens; KM12, colon cancer; single dose 10 μM; read-out: Growth inhibition %
SW-620 = test: NCI-60 one-dose screen, SW-620; assay type: cell-based; conditions: Homo sapiens; SW-620, colon cancer; single dose 10 μM; read-out: Growth inhibition %
SF-268 = test: NCI-60 one-dose screen, SF-268; assay type: cell-based; conditions: Homo sapiens; SF-268, CNS cancer; single dose 10 μM; read-out: Growth inhibition %
SF-295 = test: NCI-60 one-dose screen, SF-295; assay type: cell-based; conditions: Homo sapiens; SF-295, CNS cancer; single dose 10 μM; read-out: Growth inhibition %
U251 = test: NCI-60 one-dose screen, U251; assay type: cell-based; conditions: Homo sapiens, U-251; U251, CNS cancer; single dose 10 μM; read-out: Growth inhibition %
LOX IMVI = test: NCI-60 one-dose screen, LOX IMVI; assay type: cell-based; conditions: Homo sapiens, melanoma, single dose 10 μM, read-out: Growth inhibition %
MALME-3M = test: NCI-60 one-dose screen, MALME-3M; assay type: cell-based; conditions: Homo sapiens, melanoma, single dose 10 μM, read-out: Growth inhibition %
SK-MEL-5 = test: NCI-60 one-dose screen, SK-MEL-5; assay type: cell-based; conditions: Homo sapiens; SK-MEL-5, melanoma; single dose 10 μM; read-out: Growth inhibition %
UACC-257 = test: NCI-60 one-dose screen, UACC-257; assay type: cell-based; conditions: Homo sapiens; UACC-257, melanoma; single dose 10 μM; read-out: Growth inhibition %
UACC-62 = test: NCI-60 one-dose screen, UACC-62; assay type: cell-based; conditions: Homo sapiens; UACC-62, melanoma; single dose 10 μM; read-out: Growth inhibition %
OVCAR-3 = test: NCI-60 one-dose screen, OVCAR-3; assay type: cell-based; conditions: Homo sapiens; OVCAR-3, ovarian cancer; single dose 10 μM; read-out: Growth inhibition %
NCI/ADR-RES = test: NCI-60 one-dose screen, NCI/ADR-RES; assay type: cell-based; conditions: Homo sapiens, ovarian cancer, single dose 10 μM, read-out: Growth inhibition %
SK-OV-3 = test: NCI-60 one-dose screen, SK-OV-3; assay type: cell-based; conditions: Homo sapiens; SK-OV-3, ovarian cancer; single dose 10 μM; read-out: Growth inhibition %
786-0 = test: NCI-60 one-dose screen, 786-0; assay type: cell-based; conditions: Homo sapiens; 786-0, renal cancer; single dose 10 μM; read-out: Growth inhibition %
ACHN = test: NCI-60 one-dose screen, ACHN; assay type: cell-based; conditions: Homo sapiens, renal cancer, single dose 10 μM, read-out: Growth inhibition %
TK-10 = test: NCI-60 one-dose screen, TK-10; assay type: cell-based; conditions: Homo sapiens; TK-10, renal cancer; single dose 10 μM; read-out: Growth inhibition %
UO-31 = test: NCI-60 one-dose screen, UO-31; assay type: cell-based; conditions: Homo sapiens; UO-31, renal cancer; single dose 10 μM; read-out: Growth inhibition %
PC-3 = test: NCI-60 one-dose screen, PC-3; assay type: cell-based; conditions: Homo sapiens; PC-3, prostate cancer; single dose 10 μM; read-out: Growth inhibition %
DU-145 = test: NCI-60 one-dose screen, DU-145; assay type: cell-based; conditions: Homo sapiens; DU-145, prostate cancer; single dose 10 μM; read-out: Growth inhibition %
MCF-7 = test: NCI-60 one-dose screen, MCF-7; assay type: cell-based; conditions: Homo sapiens, MCF7; MCF-7, breast cancer; single dose 10 μM; read-out: Growth inhibition %
HS 578 T = test: NCI-60 one-dose screen, HS 578 T; assay type: cell-based; conditions: Homo sapiens, breast cancer, single dose 10 μM, read-out: Growth inhibition %
MDA-MB-468 = test: NCI-60 one-dose screen, MDA-MB-468; assay type: cell-based; conditions: Homo sapiens; MDA-MB-468, breast cancer; single dose 10 μM; read-out: Growth inhibition %

SMILES: C1=Cc2ccccc2N(c2nnc(Cc3ccccc3)o2)c2ccccc21 [Compound 5g, 2-Benzyl-5-(5H-dibenzo[b,f]azepin-5-yl)-1,3,4-oxadiazole]
- inhibition at 10 µM (CCRF-CEM): 15.6%
- inhibition at 10 µM (K-562): 14.9%
- inhibition at 10 µM (MOLT-4): 10.9%
- inhibition at 10 µM (RPMI-8226): 27.8%
- inhibition at 10 µM (SR): 17.6%
- inhibition at 10 µM (EKVX): 2.24%
- inhibition at 10 µM (HOP-62): 18.4%
- inhibition at 10 µM (HOP-92): < 10%
- inhibition at 10 µM (NCI-H322M): < 10%
- inhibition at 10 µM (NCI-H522): < 10%
- inhibition at 10 µM (HCT-15): 4.03%
- inhibition at 10 µM (HT29): < 10%
- inhibition at 10 µM (KM12): < 10%
- inhibition at 10 µM (SW-620): 19.7%
- inhibition at 10 µM (SF-268): 10.7%
- inhibition at 10 µM (SF-295): < 10%
- inhibition at 10 µM (U251): 10.1%
- inhibition at 10 µM (LOX IMVI): < 10%
- inhibition at 10 µM (MALME-3M): < 10%
- inhibition at 10 µM (SK-MEL-5): < 10%
- inhibition at 10 µM (UACC-257): 19.1%
- inhibition at 10 µM (UACC-62): 10.8%
- inhibition at 10 µM (OVCAR-3): 12.3%
- inhibition at 10 µM (NCI/ADR-RES): < 10%
- inhibition at 10 µM (SK-OV-3): < 10%
- inhibition at 10 µM (786-0): 18.8%
- inhibition at 10 µM (ACHN): 27.7%
- inhibition at 10 µM (TK-10): 21.1%
- inhibition at 10 µM (UO-31): 30.7%
- inhibition at 10 µM (PC-3): < 10%
- inhibition at 10 µM (DU-145): 16.3%
- inhibition at 10 µM (MCF-7): < 10%
- inhibition at 10 µM (HS 578 T): 24.1%
- inhibition at 10 µM (MDA-MB-468): 15.6%
- melting point: 189 to 191 °C
